From US12358919B2, “Antibacterial compounds” (Universita' degli Studi di Siena, priority 2019, dated 2025)

What was measured:
[1] = system: Bacillus subtilis ATCC 6633; assay: MIC, broth microdilution (direct antibacterial activity); type: cell-based; details: ATCC6633, B. subtilis ATCC 6633, compound alone, 18-24 h, read-out: MIC
Experimental: (§1) Growth inhibition or killing of bacteria was investigated using conventional methods widely described in the scientific literature. Parameters such as the Minimum Inhibitory Concentration (MIC) were determined as described in Clinical Laboratory Standard Institute (CLSI) document M07 “Methods for Dilution Antimicrobial Susceptibility Tests for Bacteria That Grow Aerobically, 11th Edition” (2018). Synergistic activity of the compounds described in the present specification were determined by measuring the variation of the MIC's compound in the absence and presence of a sub-inhibitory concentration of a suitable antibacterial agent, such as polymyxin E1. Furthermore, the Fractional Inhibitory Concentrations (FICs) were measured using a chequerboard analysis to determine the average FIC index (FICI), whose value is known to characterize the interaction between two compounds and/or drugs (≤0.5, synergistic interaction; >0.5 and <2, no interaction, additive effect; ≥2, antagonistic interaction). Furthermore, the selectivity of the compounds was investigated by measuring their cytotoxic effect on mammalian cell lines (e.g. HeLa cells).
(§2) The MIC values were determined using the broth microdilution method as described in document M07 using Mueller-Hinton broth as culture medium and an initial bacterial inoculum size of 5×10^5 CFU/mL, with a final volume of 100 μL per well in a 96-well microplate. Bacterial strains were Bacillus subtilis ATCC 6633, Enterococcus faecalis ATCC 29212, Streptococcus pyogenes ATCC 12344 and Staphylococcus aureus ATCC 25923. The tested compound concentration ranged from 512 to 0.25 mg/L. Plates were incubated for 18-24 hours at 35±2° C. prior to results analysis.

[2] = system: Streptococcus pyogenes ATCC 12344; assay: as above; type: cell-based; details: ATCC12344, S. pyogenes ATCC 12344, compound alone, 18-24 h, read-out: MIC
Experimental: as §1, §2

[3] = system: Staphylococcus aureus ATCC 25923; assay: as above; type: cell-based; details: ATCC25923, S. aureus ATCC 25923, compound alone, 18-24 h, read-out: MIC
Experimental: as §1, §2

[4] = system: Enterococcus faecalis ATCC 29212; assay: as above; type: cell-based; details: ATCC29212, E. faecalis ATCC 29212, compound alone, 18-24 h, read-out: MIC
Experimental: as §1, §2

[5] = system: K. pneumoniae ATCC 13833; assay: Chequerboard analysis with polymyxin E1 (average FIC index); type: cell-based, Klebsiella pneumoniae; details: compound + polymyxin E1

Molecule `CCCCn1c(=O)c(C(=O)NC23CC4CC(CC(C4)C2)C3)c(O)c2nn(C)cc21` [Ib, N-(Adamantan-1-yl)-4-(1-butyl)-4,5-dihydro-7-hydroxy-2-methyl-5-oxo-2H-pyrazolo[4,3-b]pyridin-6-carboxamide] has an MIC [1] of 32 µg/mL, an MIC [2] of 16 µg/mL and an MIC [3] of 64 µg/mL. The MIC [4] was 64 µg/mL and the “Average FIC index” value [5] was 0.30.
